The values that follow come from US4493845A, “Antibiotic AM-3603” (Kitasato Kenkyusho, priority 1980, dated 1985).

What all share (format): cell-based
Assay [1] has as its system Alternaria kikuchiana. Briefly: Comparison of anti-phytopathogenic activity, MIC. To be noted: Glucosepotato agar, 2-3 days.
In assay [2] the test system is Piricularia oryzae. Briefly: microbe, parasite or virus in culture. To be noted: Glucosepotato agar, 2-3 days.
In assay [3] the test system is Pellicularia sasakii. In words: Comparison of anti-phytopathogenic activity, MIC.
The subject of assay [4] is Botrytis cinerea. In words: Comparison of anti-phytopathogenic activity, MIC. To be noted: Glucosepotato agar, 2-3 days.
In assay [5] the test system is Sclerotinia cinerea. In words: Comparison of anti-phytopathogenic activity, MIC. To be noted: Glucosepotato agar, 2-3 days.
Where [6] appears, read: A, isolate from infected plant, Glucosepotato agar, 2-3 days.
[7] abbreviates: B, laboratory stock culture, Glucosepotato agar, 2-3 days.

Values after ≈ are worked out from the molar mass of the structure shown. Read-outs that look alike come from different tables or passages of the source. Where only a bound is given, the exact number is not on record here.

`C[C@@H](N)C(=O)N[C@H]1CO[C@H](O)[C@H](N)[C@H]1O` [Prumycin]: the MIC is > 100 mg/L in assay [1] (A, isolate from infected plant); 50 mg/L (≈ 228 µM) in assay [1] (B, laboratory stock culture); > 100 mg/L in assay [2] (A, isolate from infected plant); 100 mg/L (≈ 456 µM) in assay [2] (B, laboratory stock culture); > 100 mg/L in assay [3] (setting [6]); > 100 mg/L in assay [3] (setting [7]). Moreover, the MIC is 100 mg/L (≈ 456 µM) in assay [4] (A, isolate from infected plant); 50 mg/L (≈ 228 µM) in assay [4] (B, laboratory stock culture); 1.56 mg/L (≈ 7.12 µM) in assay [5] (A, isolate from infected plant); 6.25 mg/L (≈ 28.5 µM) in assay [5] (B, laboratory stock culture).
`CN(CCC(N)CC(=O)NC1C=CC(n2ccc(N)nc2=O)OC1C(=O)O)C(=N)N` (stereo not shown) [Blasticidin S]: the MIC in assay [1] (Alternaria kikuchiana, A, isolate from infected plant) is 50 mg/L (≈ 118 µM); in assay [1] (Alternaria kikuchiana, B, laboratory stock culture), 12.5 mg/L (≈ 29.6 µM); in assay [2] (A, isolate from infected plant), > 100 mg/L; in assay [2] (B, laboratory stock culture), 25 mg/L (≈ 59.2 µM); in assay [3], > 100 mg/L; in assay [3] (setting [7]), > 100 mg/L. Also, the MIC is 50 mg/L (≈ 118 µM) in assay [4] (Botrytis cinerea, A, isolate from infected plant); 100 mg/L (≈ 237 µM) in assay [4] (Botrytis cinerea, B, laboratory stock culture); 50 mg/L (≈ 118 µM) in assay [5] (Sclerotinia, A, isolate from infected plant); 25 mg/L (≈ 59.2 µM) in assay [5] (Sclerotinia, B, laboratory stock culture).
Consider Venturicidin, for which the MIC is > 25 mg/L in assay [1] (B, laboratory stock culture); < 0.03 mg/L in assay [2] (A, isolate from infected plant); < 0.03 mg/L in assay [2] (B, laboratory stock culture); 1.56 mg/L in assay [3] (setting [6]); > 25 mg/L in assay [3] (setting [7]); > 25 mg/L in assay [4] (B, laboratory stock culture). Besides, the MIC was determined as 0.78 mg/L in assay [5] (A, isolate from infected plant) and 0.78 mg/L in assay [5] (B, laboratory stock culture).
